Assay [1] concerns MLKL phosphorylation in HT29-L23 human colorectal adenocarcinoma cells. Description: MLKL Phosphorylation High-Content Assay. In kind it is cell-based. The conditions noted are these: necroptosis induced with TNFα, SMAC mimetic and Z-VAD, 6 h, read-out: pMLKL (IC50). Here is the method:
MLKL Phosphorylation High-Content Assay
HT29-L23 human colorectal adenocarcinoma cells were maintained in RPMI 1640 medium containing 10% heat-inactivated FBS, 1% Pennicilin-Streptomycin and 10 mM HEPES. Cells were seeded at 2,000 cells/well in 384 w tissue culture-treated microplates (Greiner #781090-3B) and incubated at 37° C. (5% CO2/95% O2) for two days. On the day of assay, the cells were treated with test compounds at final concentrations of 6.25 to 0.106 μM for 30 min at 37° C. (5% CO2/95% O2). Necroptopsis was induced using a mixture of human TNFα (35 ng/mL) (Peprotech #300-01A), SMAC mimetic (from US 2015/0322111 A1) (700 nM) and Z-VAD (140 nM) (BD pharmingen #51-6936). Following six hours incubation at 37° C. (5% CO2/95% O2), the cells were fixed with 4% formaldedye (ACROS 11969-0010) for 15 min at room temperature and then permeabilized with phoshpate buffered saline (PBS) containing 0.2% Triton-X-100 for 10 min. MLKL phosporylation was detected using anti-MLKL (phospho S358) antibody (Abcam # ab187091) (1:1000 dilution in Blocking Buffer [PBS supplemented with 0.1% BSA]) with overnight incubation at 4° C. After washing three times in PBS, goat anti-rabbit Alexa-488 (1:1000 dilution) (Life Technologies, A11008) and Hoechst 33342 (Life Technologies, H3570) (1:2000 dilution) in Blocking Buffer were added for 1 h at room temperature. Following another three cycles of washes in PBS, the microplates were sealed, and cellular images were acquired in the Cellomics ArrayScan VTI high-content imager equipped with an X1 camera. Fluorescent images were taken using a 10× objective and the 386-23 BGRFRN_BGRFRN and 485-20 BGRFRN_BGRFRN filter sets, for nuclei and MLKL phosphorylation, respectively. The image sets were analyzed using the Compartmental Analysis Bioapplication software (Cellomics). The level of MLKL phosphorylation was quantified as MEAN_CircRingAvgIntenRatio. […] The IC50 value was defined as the concentration of compound that produces 50% of the maximal inhibition. The data were fitted using the 4-parameter logistic equation to calculate the IC50 and Ymax values.

For assay [2], the target named is His-GST-TVMV-hRIPK1(1-324) (Homo sapiens (Human), UniProt Q13546). In words: RIPK1 HTRF Binding Assay. The conditions noted are these: HTRF binding, 1 h at rt; read-out: RIPK1 (IC50). Here is the method: A solution was prepared containing 0.2 nM Anti GST-Tb (Cisbio, 61GSTTLB), 90.6 nM probe and 1 nM His-GST-TVMV-hRIPK1(1-324) in FRET Buffer (20 mM HEPES, 10 mM MgCl2, 0.015% Brij-35, 4 mM DTT, 0.05 mg/mL BSA). Using Formulatrix Tempest, the detection antibody/enzyme/probe solution ([…]) was dispensed into wells of a 1536 plate (Black Low Binding Polystyrene 1536 Plate (Corning, 3724)) containing 10 nL of compounds of interest at appropriate concentration in DMSO. The plate was incubated at rt for 1 h. FRET was measured using the EnVision plate reader (Excitation: 340 nm, Emission: 520 nm/[…]). Total signal (0% inhibition) was calculated from wells containing 10 nL DMSO only.
The coding region of human RIPK1(1-324) flanked by NdeI site at 5′ end and stop codon TGA and XhoI site at 3′ end was codon optimized and gene synthesized at GenScript USA Inc. (Piscataway, N.J.) and subcloned into a modified pFastBacl vector (Invitrogen, Carlsbad, Calif.) with N-terminal His-GST-TVMV tag, to generate His-GST-TVMV-hRIPK1(1-324)-pFB. The fidelity of the synthetic fragment was confirmed by sequencing.
Background: In TR-FRET formats the signal depends on donor and acceptor labels being close together.

Where two headings read alike, the source gives them in different places. Some results are limits rather than exact numbers.

His-GST-TVMV-hRIPK1(1-324), sequence (Q13546 1-324): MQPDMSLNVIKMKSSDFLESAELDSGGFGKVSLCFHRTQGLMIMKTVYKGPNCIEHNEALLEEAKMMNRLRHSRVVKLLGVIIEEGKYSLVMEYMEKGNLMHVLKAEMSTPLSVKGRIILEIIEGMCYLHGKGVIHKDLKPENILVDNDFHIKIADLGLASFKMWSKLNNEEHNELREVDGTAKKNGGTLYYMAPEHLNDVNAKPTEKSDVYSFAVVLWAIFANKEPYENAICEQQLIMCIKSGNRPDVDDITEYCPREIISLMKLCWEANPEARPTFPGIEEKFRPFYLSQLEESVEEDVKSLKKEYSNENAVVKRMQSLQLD

Regarding “5-{2-acetamidoimidazo[1,2-b]pyridazin- 6-yl}-N-{[2-fluoro-5- (trifluoromethoxy)phenyl]- (deutero)methyl}-2-methoxy-6- methylpyridine-3-carboxamide [Example 282]”, the IC50 (in general, the concentration at which inhibition is half-maximal) turned out to be 8 nM in assay [1] and 10 nM in assay [2].
The matching figures for “5-{2-acetamidoimidazo[1,2-b]pyridazin- 6-yl}-N-{[3-fluoro-5- (trifluoromethoxy)phenyl]methyl}-2,6- dimethylpyridine-3-carboxamide, TFA [Example 79]”: 46 nM and 38 nM.
`CC(=O)Nc1cn2nc(-c3cnc(C)c(C(=O)NC(C)c4cc(OC(F)(F)F)ccc4F)c3)ccc2n1` (single isomer, unassigned) [Example 9-1, 5-(2-acetamidoimidazo[1,2-b]pyridazin-6-yl)-N-(1-(2-fluoro-5-(trifluoromethoxy)phenyl)ethyl)-2-methylnicotinamide]: the IC50 in assay [1] (Homo sapiens) and in assay [2] was 25 nM in each case.
In the case of `CC(=O)Nc1cn2nc(-c3cnc(C)c(C(=O)N[C@H](C)c4cc(OC(F)(F)F)ccc4F)c3)ccc2n1` (single isomer, unassigned) [Example 9-2], the IC50 in assay [1] (Homo sapiens) came to 28 nM; in assay [2] it was 31 nM.
Take `[2H]C([2H])([2H])Oc1nc(C)c(-c2ccc3nc(NC(C)=O)cn3n2)cc1C(=O)NC(C)c1ccccc1OC(F)(F)F` (single isomer, unassigned) [Example 13-1, 5-{2-acetamidoimidazo[1,2-b]pyridazin-6-yl}-2-(D3)methoxy-6-methyl-N-{1-[2-(trifluoromethoxy)phenyl]ethyl}pyridine-3-carboxamide]: the IC50 was > 6250 nM in assay [1] and 986 nM in assay [2].
For `[2H]C([2H])([2H])Oc1nc(C)c(-c2ccc3nc(NC(C)=O)cn3n2)cc1C(=O)NC(C)c1ccccc1OC(F)(F)F` (single isomer, unassigned) [Example 13-2, 5-{2-acetamidoimidazo[1,2-b]pyridazin-6-yl}-2-(D3)methoxy-6-methyl-N-{1-[2-(trifluoromethoxy)phenyl]ethyl}pyridine-3-carboxamide] the same measures were 1 nM and 6 nM.
For `CC(=O)Nc1cn2nc(-c3cnc(C)c(C(=O)N4CCCC(C(O)c5ccc(F)cc5)C4)c3)ccc2n1` (single isomer, unassigned) [Example 354, N-[6-(5-{3-[(4-fluorophenyl)(hydroxy)methyl]piperidine-1-carbonyl}-6-methylpyridin-3-yl)imidazo[1,2-b]pyridazin-2-yl]acetamide] the same measures were 223 nM and 212 nM.
The matching figures for `CC(=O)Nc1cn2nc(-c3cnc(C)c(C(=O)N4CCCC(C(O)c5ccc(F)cc5)C4)c3)ccc2n1` (single isomer, unassigned) [Example 355, N-[6-(5-{3-[(4-fluorophenyl)(hydroxy)methyl]piperidine-1-carbonyl}-6-methylpyridin-3-yl)imidazo[1,2-b]pyridazin-2-yl] acetamide]: 553 nM and 223 nM.
For `CC(=O)Nc1cn2nc(-c3cnc(C)c(CNC(=O)c4cc(OC(F)(F)F)ccc4F)c3)ccc2n1` [Example 1, N-[(5-{2-acetamidoimidazo[1,2-b]pyridazin-6-yl}-2-methylpyridin-3-yl)methyl]-2-fluoro-5-(trifluoromethoxy)benzamide], the IC50 in assay [1] (Homo sapiens) is 240 nM; in assay [2], 101 nM.
The matching figures for `[2H]C([2H])(NC(=O)c1cc(-c2ccc3nc(NC(=O)CO)cn3n2)cnc1OC)c1cc(F)cc(F)c1OC1CCOCC1` [Example 2, N-{[3,5-difluoro-2-(oxan-4-yloxy)phenyl](D2)methyl}-5-[2-(2-hydroxyacetamido)imidazo[1,2-b]pyridazin-6-yl]-2-methoxypyridine-3-carboxamide]: 4 nM and 2 nM.
For `COCC(=O)Nc1cn2nc(-c3cnc(OC)c(C(=O)NCc4ccccc4OC(F)(F)F)c3)ccc2n1` [Example 3, 2-methoxy-5-[2-(2-methoxyacetamido)imidazo[1,2-b]pyridazin-6-yl]-N-{[2-(trifluoromethoxy)phenyl]methyl}pyridine-3-carboxamide] the same measures were 295 nM and 30 nM.
Take `CCC(=O)Nc1cn2nc(-c3cnc(OC)c(C(=O)NCc4cc(F)cc(F)c4OCC4CC4)c3)ccc2n1` [Example 4, N-{[2-(cyclopropylmethoxy)-3,5-difluorophenyl]methyl}-2-methoxy-5-{2-propanamidoimidazo[1,2-b]pyridazin-6-yl}pyridine-3-carboxamide]: the figures for the IC50 in assay [1] (Homo sapiens) and in assay [2] were 10 nM and 2 nM, respectively.
For `COc1ncc(-c2ccc3nc(NC(=O)C(C)C)cn3n2)cc1C(=O)NCc1cc(F)cc(F)c1OCC1CC1` [Example 5, N-{[2-(cyclopropylmethoxy)-3,5-difluorophenyl]methyl}-2-methoxy-5-[2-(2-methylpropanamido)imidazo[1,2-b]pyridazin-6-yl]pyridine-3-carboxamide] the same measures were 11 nM and 7 nM.
The matching figures for `COc1ncc(-c2ccc3nc(NC(C)=O)c(C)n3n2)cc1C(=O)NCc1cc(OC(F)(F)F)ccc1F` [Example 6, 5-{2-acetamido-3-methylimidazo[1,2-b]pyridazin-6-yl}-N-{[2-fluoro-5-(trifluoromethoxy)phenyl]methyl}-2-methoxypyridine-3-carboxamide]: 10 nM and 25 nM.
The matching figures for `COc1ncc(-c2ccc3nc(NC(=O)CC#N)cn3n2)cc1C(=O)NCc1cc(F)cc(F)c1OCC1CC1` [Example 7, 5-[2-(2-cyanoacetamido)imidazo[1,2-b]pyridazin-6-yl]-N-{[2-(cyclopropylmethoxy)-3,5-difluorophenyl]methyl}-2-methoxypyridine-3-carboxamide]: 38 nM and 14 nM.
For `COc1ncc(-c2ccc3nc(NC(=O)C(C)(C)C#N)cn3n2)cc1C(=O)NCc1cc(F)cc(F)c1OCC1CC1` [Example 8, 5-[2-(2-Cyano-2,2-dimethylacetamido)imidazo[1,2-b]pyridazin-6-yl]-N-{[2-(cyclopropylmethoxy)-3,5-difluorophenyl]methyl}-2-methoxypyridine-3-carboxamide], the values for the IC50 in assay [1] (Homo sapiens) and in assay [2] were 41 nM and 39 nM, respectively.
For `CCC(=O)Nc1cn2nc(-c3cnc(OC)c(C(=O)NCc4cc(OC(F)(F)F)ccc4F)c3)ccc2n1` [Example 10, N-{[2-fluoro-5-(trifluoromethoxy)phenyl]methyl}-2-methoxy-5-{2-propanamidoimidazo[1,2-b]pyridazin-6-yl}pyridine-3-carboxamide] the same measures were 33 nM and 11 nM.
The matching figures for `COc1ncc(-c2ccc3nc(NC(=O)C(C)C)cn3n2)cc1C(=O)NCc1cc(OC(F)(F)F)ccc1F` [Example 11, N-{[2-fluoro-5-(trifluoromethoxy)phenyl]methyl}-2-methoxy-5-[2-(2-methylpropanamido)imidazo[1,2-b]pyridazin-6-yl]pyridine-3-carboxamide]: 89 nM and 20 nM.
For the compound `CC(=O)Nc1cn2nc(-c3cnc(Cl)c(C(=O)NCc4cc(OC(F)(F)F)ccc4F)c3)ccc2n1` [Example 12, 2-chloro-5-{2-acetamidoimidazo[1,2-b]pyridazin-6-yl}-N-{[2-fluoro-5-(trifluoromethoxy)phenyl]methyl}pyridine-3-carboxamide], the IC50 in assay [1] (Homo sapiens) was determined as 27 nM; in assay [2], 5 nM.
